Measured values taken from publication PMC12209990, “Effect of Cytochrome P450 3A Inhibition and Induction by Itraconazole and Rifampin on Tazemetostat Pharmacokinetics in Patients With Advanced Malignancies” (Clinical Pharmacology in Drug Development, 2025).
Read-outs that look alike come from different tables or passages of the source. Marks after values point to notes of the source that are not given here.

Columns and labels:
[1] = parameters: method as in PMID 29473431, PMID 38520556, PMID 33492746; details: doses of 200‐1600 mg twice daily; cited from earlier work
[2] = Phase I DDI study Part 1: tazemetostat plasma PK alone and with itraconazole (noncompartmental analysis); type: in vivo, human; details: for RacAUC (AUC0‐12h accumulation ratio), geoLSM (90% CI) / RacCmax (Cmax accumulation ratio), geoLSM (90% CI): tazemetostat 400 mg alone, Day 15 versus Day 1; for AUC / AUC(0-t) / Cmax / half-life / Tmax: human; for Tmax: read-out: tmax, median (range)
Excerpt: This was a Phase I, multicenter, open‐label, 2‐part study encompassing a fixed‐sequence design that aimed to characterize the PK of tazemetostat when administered as single and twice‐daily oral doses alone or in combination with either itraconazole (Part 1) or rifampin (Part 2). Secondary objectives were to evaluate the safety profile of tazemetostat when coadministered with either itraconazole (Part 1) or rifampin (Part 2).
(§1) Part 1 of the study evaluated the DDI between tazemetostat and itraconazole. On the mornings of Days 1 and 15, patients received a single dose of tazemetostat 400 mg orally. On Days 3‐14, patients received tazemetostat 400 mg twice daily (morning and evening). On Days 18‐20, patients received itraconazole 200 mg orally once daily in the morning. On Days 21‐35, tazemetostat 400 mg twice daily was coadministered in the morning with a single dose of itraconazole 200 mg. On Day 36, patients received a single dose of tazemetostat 400 mg coadministered in the morning with a single dose of itraconazole 200 mg. On Days 37 and 38, patients received a single dose of itraconazole 200 mg (Figure 1A). Throughout Part 1, administration of itraconazole occurred 1 hour after a meal.
In Part 1, plasma concentrations of tazemetostat following tazemetostat dosing on Days 1, 15, 21, and 36 were quantified for PK analyses before dosing (0 hour), and at 0.5, 1, 1.5, 2, 4, 6, 8, 12, 24 (Days 21‐22), 36, 48 (Days 1‐3), and up to 72 hours after dosing (Days 15‐18 and Days 36‐39).
Plasma concentrations of tazemetostat, over the ranges of 1.00‐2000 ng/mL, were quantified by a fully validated liquid chromatography with tandem mass spectrometric detection analytical method. Samples that had no detectable peak or had the calculated concentration <1.00 ng/mL were reported as below the lower limit of quantification. Tazemetostat analysis consisted of protein precipitation extraction and separation using mobile phases of 100 mM ammonium formate/water (1:9 v/v) (mobile phase A) and 100 mM ammonium formate/acetonitrile (1:9 v/v) (mobile phase B). Detection was achieved using an API‐5500 mass spectrometer (AB Sciex) using electrospray ionization (positive‐ion mode) in the multiple reaction monitoring mode. The multiple reaction monitoring mode m/z transitions monitored were […] for tazemetostat and the dwell time was set at 300 milliseconds.
Plasma concentration‐time data for tazemetostat were analyzed by noncompartmental analysis using the validated software program Phoenix WinNonlin Professional Version 8.3 (Certara Inc., Mountain View, CA).

[3] = Safety (TEAEs) Part 1: tazemetostat coadministered with itraconazole
Description: as §1
Safety was assessed by monitoring treatment‐emergent adverse events (TEAEs) and vital signs, electrocardiography, and clinical laboratory tests. TEAEs were defined as adverse events that started or worsened in severity on or after the date of the first dose of the study drug through 30 days after the last dose. Treatment‐related TEAEs were summarized by each study drug for both study parts. Adverse events were coded using the Medical Dictionary for Regulatory Activities Version 23.1 and graded per Common Terminology Criteria for Adverse Events Version 5.0.

CYP3A = system: CYP3A; parameters: method as in PMID 29473431, PMID 38520556, PMID 33492746; details: in vitro; cited from earlier work
[4] = Part 1, single dose with itraconazole vs alone, Day 21 versus Day 1
[5] = Part 1, single dose with itraconazole vs alone, Day 21 versus Day 1, listed as tazemetostat
[6] = Part 1, steady state with itraconazole vs alone, Day 36 versus Day 15
[7] = Part 1, steady state with itraconazole vs alone, Day 36 versus Day 15, listed as tazemetostat
[8] = single doses, Day 21/Day 1, compared with tazemetostat alone
[9] = twice‐daily dosing, steady state, Day 36/Day 15

CCN(c1cc(-c2ccc(CN3CCOCC3)cc2)cc(C(=O)NCc2c(C)cc(C)[nH]c2=O)c1C)C1CCOCC1 [Tazemetostat]
dose proportionality of systemic exposure [1]: approximately dose proportional
AUC0‐12h ratio, geoLSM (90% CI) [2, 4]: 3.12 (2.44‐3.99) ^b
Cmax ratio, geoLSM (90% CI) [2, 4]: 2.00 (1.60‐2.48) ^b
AUC0‐12h ratio, geoLSM (90% CI) [2, 5]: 3.12
Cmax ratio, geoLSM (90% CI) [2, 5]: 2.00
AUC0‐12h ratio, geoLSM (90% CI) [2, 6]: 2.47 (2.02‐3.02) ^c
Cmax ratio, geoLSM (90% CI) [2, 6]: 1.86 (1.49‐2.31) ^c
AUC0‐12h ratio, geoLSM (90% CI) [2, 7]: 2.47
Cmax ratio, geoLSM (90% CI) [2, 7]: 1.86
RacAUC (AUC0‐12h accumulation ratio), geoLSM (90% CI) ([2]; Part 1): 0.842 (0.726‐0.976) ^e
RacCmax (Cmax accumulation ratio), geoLSM (90% CI) ([2]; Part 1): 0.771 (0.662‐0.897) ^e
RacAUC (AUC0‐12h accumulation ratio), geoLSM (90% CI) ([2]; Part 1, listed as tazemetostat): 0.842
RacCmax (Cmax accumulation ratio), geoLSM (90% CI) ([2]; Part 1, listed as tazemetostat): 0.771
AUC0‐12 h, GeoMean (CV%) ([2]; Part 1, tazemetostat 400 mg multiple dosing with itraconazole 200 mg once daily, Day 36, plasma): 4530 (64.5) ng•h/mL
t1/2, GeoMean (CV%) ([2]; Part 1, tazemetostat 400 mg single dose with itraconazole 200 mg once daily, Day 21, plasma, estimated over a 12‐hour dosing interval): 2.86 (28.9) ^a hour
AUC ([2]; plasma, oral, 400 mg, Part 1, tazemetostat 400 mg twice daily alone, multiple dosing, Day 15, plasma, read-out: AUC0‐12 h, GeoMean (CV%)): 1830 ng·h/mL
AUC ([2]; plasma, oral, 400 mg, Part 1, tazemetostat 400 mg twice daily alone, multiple dosing, Day 15, plasma, read-out: AUC0‐12 h, mean (SD)): 1960 ng·h/mL
AUC(0-t) ([2]; plasma, oral, 400 mg, Part 1, tazemetostat 400 mg twice daily alone, multiple dosing, Day 15, plasma, read-out: AUClast, GeoMean (CV%)): 2200 ng·h/mL
AUC(0-t) ([2]; plasma, oral, 400 mg, Part 1, tazemetostat 400 mg twice daily alone, multiple dosing, Day 15, plasma, read-out: AUClast, mean (SD)): 2340 ng·h/mL
Cmax ([2]; plasma, oral, 400 mg, Part 1, tazemetostat 400 mg twice daily alone, multiple dosing, Day 15, plasma, read-out: Cmax, GeoMean (CV%)): 543 ng/mL
Cmax ([2]; plasma, oral, 400 mg, Part 1, tazemetostat 400 mg twice daily alone, multiple dosing, Day 15, plasma, read-out: Cmax, mean (SD)): 643 ng/mL
half-life ([2]; plasma, oral, 400 mg, Part 1, tazemetostat 400 mg twice daily alone, multiple dosing, Day 15, plasma, read-out: t1/2, GeoMean (CV%) (converted)): 8.01 h
half-life ([2]; plasma, oral, 400 mg, Part 1, tazemetostat 400 mg twice daily alone, multiple dosing, Day 15, plasma, read-out: t1/2, mean (SD) (converted)): 8.62 h
Tmax ([2]; plasma, oral, 400 mg, Part 1, tazemetostat 400 mg twice daily alone, multiple dosing, Day 15, plasma): 1.27 h
AUC ([2]; plasma, oral, Part 1, tazemetostat 400 mg multiple dosing with itraconazole 200 mg once daily, Day 36, plasma, read-out: AUC0‐12 h, mean (SD)): 5160 ng·h/mL
AUC(0-t) ([2]; plasma, oral, Part 1, tazemetostat 400 mg multiple dosing with itraconazole 200 mg once daily, Day 36, plasma, read-out: AUClast, GeoMean (CV%)): 5750 ng·h/mL
AUC(0-t) ([2]; plasma, oral, Part 1, tazemetostat 400 mg multiple dosing with itraconazole 200 mg once daily, Day 36, plasma, read-out: AUClast, mean (SD)): 6490 ng·h/mL
Cmax ([2]; plasma, oral, Part 1, tazemetostat 400 mg multiple dosing with itraconazole 200 mg once daily, Day 36, plasma, read-out: Cmax, GeoMean (CV%)): 1010 ng/mL
Cmax ([2]; plasma, oral, Part 1, tazemetostat 400 mg multiple dosing with itraconazole 200 mg once daily, Day 36, plasma, read-out: Cmax, mean (SD)): 1190 ng/mL
half-life ([2]; plasma, oral, Part 1, tazemetostat 400 mg multiple dosing with itraconazole 200 mg once daily, Day 36, plasma, read-out: t1/2, GeoMean (CV%) (converted)): 11.9 h
half-life ([2]; plasma, oral, Part 1, tazemetostat 400 mg multiple dosing with itraconazole 200 mg once daily, Day 36, plasma, read-out: t1/2, mean (SD) (converted)): 12.9 h
Tmax ([2]; plasma, oral, Part 1, tazemetostat 400 mg multiple dosing with itraconazole 200 mg once daily, Day 36, plasma): 1.49 h
half-life ([2]; plasma, oral, Part 1, tazemetostat 400 mg single dose with itraconazole 200 mg once daily, Day 21, plasma, estimated over a 12‐hour dosing interval, read-out: t1/2, mean (SD) (converted)): 2.95 h
AUC ([2]; plasma, oral, Part 1, tazemetostat 400 mg single dose with itraconazole 200 mg once daily, Day 21, plasma, read-out: AUC0‐12 h, GeoMean (CV%)): 6790 ng·h/mL
AUC ([2]; plasma, oral, Part 1, tazemetostat 400 mg single dose with itraconazole 200 mg once daily, Day 21, plasma, read-out: AUC0‐12 h, mean (SD)): 8000 ng·h/mL
AUC(0-t) ([2]; plasma, oral, Part 1, tazemetostat 400 mg single dose with itraconazole 200 mg once daily, Day 21, plasma, read-out: AUClast, GeoMean (CV%)): 6720 ng·h/mL
AUC(0-t) ([2]; plasma, oral, Part 1, tazemetostat 400 mg single dose with itraconazole 200 mg once daily, Day 21, plasma, read-out: AUClast, mean (SD)): 7930 ng·h/mL
Cmax ([2]; plasma, oral, Part 1, tazemetostat 400 mg single dose with itraconazole 200 mg once daily, Day 21, plasma, read-out: Cmax, GeoMean (CV%)): 1400 ng/mL
Cmax ([2]; plasma, oral, Part 1, tazemetostat 400 mg single dose with itraconazole 200 mg once daily, Day 21, plasma, read-out: Cmax, mean (SD)): 1640 ng/mL
Tmax ([2]; plasma, oral, Part 1, tazemetostat 400 mg single dose with itraconazole 200 mg once daily, Day 21, plasma): 1.53 h
AUC ([2]; plasma, po, 400 mg, Part 1, tazemetostat 400 mg oral single dose alone, Day 1, plasma, read-out: AUC0‐12 h, GeoMean (CV%)): 2180 ng·h/mL
AUC ([2]; plasma, po, 400 mg, Part 1, tazemetostat 400 mg oral single dose alone, Day 1, plasma, read-out: AUC0‐12 h, mean (SD)): 2460 ng·h/mL
AUC(0-t) ([2]; plasma, po, 400 mg, Part 1, tazemetostat 400 mg oral single dose alone, Day 1, plasma, read-out: AUClast, GeoMean (CV%)): 2640 ng·h/mL
AUC(0-t) ([2]; plasma, po, 400 mg, Part 1, tazemetostat 400 mg oral single dose alone, Day 1, plasma, read-out: AUClast, mean (SD)): 3250 ng·h/mL
Cmax ([2]; plasma, po, 400 mg, Part 1, tazemetostat 400 mg oral single dose alone, Day 1, plasma, read-out: Cmax, GeoMean (CV%)): 704 ng/mL
Cmax ([2]; plasma, po, 400 mg, Part 1, tazemetostat 400 mg oral single dose alone, Day 1, plasma, read-out: Cmax, mean (SD)): 803 ng/mL
half-life ([2]; plasma, po, 400 mg, Part 1, tazemetostat 400 mg oral single dose alone, Day 1, plasma, read-out: t1/2, GeoMean (CV%) (converted)): 5.97 h
half-life ([2]; plasma, po, 400 mg, Part 1, tazemetostat 400 mg oral single dose alone, Day 1, plasma, read-out: t1/2, mean (SD) (converted)): 6.13 h
Tmax ([2]; plasma, po, 400 mg, Part 1, tazemetostat 400 mg oral single dose alone, Day 1, plasma): 1.44 h
increase of tazemetostat exposure by itraconazole ([2]; overall, single dose and steady state): two to three times
increase of mean AUC0‐12h by itraconazole [2, 8]: 3.12 fold
increase of mean Cmax by itraconazole [2, 8]: 2.00 fold
increase of mean steady‐state AUC0‐12h by itraconazole [2, 9]: 2.47 fold
increase of mean steady‐state Cmax by itraconazole [2, 9]: 1.86 fold
Deaths due to serious TEAEs ([3]; Part 1, within 30 days following the last dose, tazemetostat with itraconazole, neither considered treatment related): Two deaths
Any TEAE Grade 3 or 4, patients ([3]; human, in vivo): 11 (52.4) n (%)
Any TEAE leading to dose reduction, patients ([3]; human, in vivo): 0 n (%)
Any TEAE leading to study drug discontinuation, patients ([3]; human, in vivo): 1 (4.8) n (%)
Any TEAE leading to study drug interruption, patients ([3]; human, in vivo): 9 (42.9) n (%)
Any TESAE, patients ([3]; human, in vivo): 8 (38.1) n (%)
Any treatment-related TEAE Grade 3 or 4, patients ([3]; human, in vivo): 2 (9.5) n (%)
Any treatment-related TESAE, patients ([3]; human, in vivo): 0 n (%)
TEAE anemia, frequency ([3]; human, in vivo): 28.6%
TEAE constipation, frequency ([3]; human, in vivo): 23.8%
TEAE decreased appetite, frequency ([3]; human, in vivo): 33%
TEAE dyspnea, frequency ([3]; human, in vivo): 33%
TEAE fatigue, frequency ([3]; human, in vivo): 28.6%
TEAE nausea, frequency ([3]; human, in vivo): 28.6%
Treatment-related TEAE Grade 3 or 4, related to the named study drug, patients ([3]; human, in vivo): 2 (9.5) n (%)
Treatment-related TEAEs, related to the named study drug, patients ([3]; human, in vivo): 12 (57.1) n (%)
Treatment-related TESAE, related to the named study drug, patients ([3]; human, in vivo): 0 n (%)
Treatment‐related Grade 3/4 TEAE anemia ([3]; human, in vivo): 9.5%
Treatment‐related Grade 3/4 TEAE hyponatremia ([3]; human, in vivo): 4.8%
metabolism by CYP3A (CYP3A): mainly metabolized by cytochrome P450 (CYP), family 3, subfamily A (CYP3A)
